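Five concentrations, 48 hours, 96-well plates. TGI: concentration producing complete growth inhibition.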
Tests used:
Test in all cases: NCI anticancer screen, dose series, 48 h
786-0 renal = test system: 786-0 renal
A498 renal = test system: A498 renal
A549 NSCLC = test system: A549 NSCLC
ACHN renal = test system: ACHN renal
CAKI-1 renal = test system: CAKI-1 renal
CCRF-CEM leukemia = test system: CCRF-CEM leukemia
COLO 205 colon = test system: COLO 205 colon
DLD-1 colon = test system: DLD-1 colon
DMS 114 small cell lung = test system: DMS 114 small cell lung
EKVX NSCLC = test system: EKVX NSCLC
HCC-2998 colon = test system: HCC-2998 colon
HCT-116 colon = test system: HCT-116 colon
HCT-15 colon = test system: HCT-15 colon
HL-60(TB) leukemia = test system: HL-60(TB) leukemia
HOP-62 NSCLC = test system: HOP-62 NSCLC
HOP-92 NSCLC = test system: HOP-92 NSCLC
HT29 colon = test system: HT29 colon
IGROV1 ovarian = test system: IGROV1 ovarian
K-562 leukemia = test system: K-562 leukemia
KM12 colon = test system: KM12 colon
KM20L2 colon = test system: KM20L2 colon
LOX IMVI melanoma = test system: LOX IMVI melanoma
LXFL 529 NSCLC = test system: LXFL 529 NSCLC
M14 melanoma = test system: M14 melanoma
M19-MEL melanoma = test system: M19-MEL melanoma
MALME-3M melanoma = test system: MALME-3M melanoma
MOLT-4 leukemia = test system: MOLT-4 leukemia
NCI-H226 lung = test system: NCI-H226 lung
NCI-H23 lung = test system: NCI-H23 lung
NCI-H460 lung = test system: NCI-H460 lung
NCI-H522 lung = test system: NCI-H522 lung
OVCAR-3 ovarian = test system: OVCAR-3 ovarian
OVCAR-4 ovarian = test system: OVCAR-4 ovarian
OVCAR-5 ovarian = test system: OVCAR-5 ovarian
OVCAR-8 ovarian = test system: OVCAR-8 ovarian
RPMI-8226 leukemia = test system: RPMI-8226 leukemia
SF-268 CNS = test system: SF-268 CNS
SF-295 CNS = test system: SF-295 CNS
SF-539 CNS = test system: SF-539 CNS
SK-MEL-2 melanoma = test system: SK-MEL-2 melanoma
SK-MEL-28 melanoma = test system: SK-MEL-28 melanoma
SK-MEL-5 melanoma = test system: SK-MEL-5 melanoma
SK-OV-3 ovarian = test system: SK-OV-3 ovarian
SN12C renal = test system: SN12C renal
SNB-19 CNS = test system: SNB-19 CNS
SNB-78 CNS = test system: SNB-78 CNS
SR leukemia = test system: SR leukemia
SW-620 colon = test system: SW-620 colon
TK-10 renal = test system: TK-10 renal
U251 CNS = test system: U251 CNS
UACC-257 melanoma = test system: UACC-257 melanoma
UACC-62 melanoma = test system: UACC-62 melanoma
UO-31 renal = test system: UO-31 renal
XF 498 CNS = test system: XF 498 CNS
DMS 273 small cell lung = test system: DMS 273 small cell lung
HOP-18 NSCLC = test system: HOP-18 NSCLC
RXF 393 renal = test system: RXF 393 renal
RXF-631 renal = test system: RXF-631 renal
SNB-75 CNS = test system: SNB-75 CNS

SMILES: Cc1cc(-c2ccccc2)nc(Nc2cc3ccccc3[nH]2)n1
- TGI (786-0 renal): > 100 µM
- TGI (A498 renal): > 100 µM
- TGI (A549 NSCLC): > 100 µM
- TGI (ACHN renal): > 100 µM
- TGI (CAKI-1 renal): > 100 µM
- TGI (CCRF-CEM leukemia): > 100 µM
- TGI (COLO 205 colon): > 100 µM
- TGI (DLD-1 colon): > 100 µM
- TGI (DMS 114 small cell lung): > 100 µM
- TGI (EKVX NSCLC): > 100 µM
- TGI (HCC-2998 colon): > 100 µM
- TGI (HCT-116 colon): > 100 µM
- TGI (HCT-15 colon): > 100 µM
- TGI (HL-60(TB) leukemia): > 100 µM
- TGI (HOP-62 NSCLC): > 100 µM
- TGI (HOP-92 NSCLC): > 100 µM
- TGI (HT29 colon): > 100 µM
- TGI (IGROV1 ovarian): > 100 µM
- TGI (K-562 leukemia): > 100 µM
- TGI (KM12 colon): > 100 µM
- TGI (KM20L2 colon): > 100 µM
- TGI (LOX IMVI melanoma): > 100 µM
- TGI (LXFL 529 NSCLC): > 100 µM
- TGI (M14 melanoma): > 100 µM
- TGI (M19-MEL melanoma): > 100 µM
- TGI (MALME-3M melanoma): > 100 µM
- TGI (MOLT-4 leukemia): > 100 µM
- TGI (NCI-H226 lung): > 100 µM
- TGI (NCI-H23 lung): > 100 µM
- TGI (NCI-H460 lung): > 100 µM
- TGI (NCI-H522 lung): > 100 µM
- TGI (OVCAR-3 ovarian): > 100 µM
- TGI (OVCAR-4 ovarian): > 100 µM
- TGI (OVCAR-5 ovarian): > 100 µM
- TGI (OVCAR-8 ovarian): > 100 µM
- TGI (RPMI-8226 leukemia): > 100 µM
- TGI (SF-268 CNS): > 100 µM
- TGI (SF-295 CNS): > 100 µM
- TGI (SF-539 CNS): > 100 µM
- TGI (SK-MEL-2 melanoma): > 100 µM
- TGI (SK-MEL-28 melanoma): > 100 µM
- TGI (SK-MEL-5 melanoma): > 100 µM
- TGI (SK-OV-3 ovarian): > 100 µM
- TGI (SN12C renal): > 100 µM
- TGI (SNB-19 CNS): > 100 µM
- TGI (SNB-78 CNS): > 100 µM
- TGI (SR leukemia): > 100 µM
- TGI (SW-620 colon): > 100 µM
- TGI (TK-10 renal): > 100 µM
- TGI (U251 CNS): > 100 µM
- TGI (UACC-257 melanoma): > 100 µM
- TGI (UACC-62 melanoma): > 100 µM
- TGI (UO-31 renal): > 100 µM
- TGI (XF 498 CNS): > 100 µM

SMILES: CCC(O)CCCCCCCCCCCCCCC(=O)O (centres undefined)
- TGI (786-0 renal): > 100 µM
- TGI (A498 renal): > 100 µM
- TGI (A549 NSCLC): > 100 µM
- TGI (ACHN renal): > 100 µM
- TGI (CAKI-1 renal): > 100 µM
- TGI (CCRF-CEM leukemia): > 100 µM
- TGI (COLO 205 colon): > 100 µM
- TGI (DLD-1 colon): > 100 µM
- TGI (DMS 114 small cell lung): > 100 µM
- TGI (DMS 273 small cell lung): > 100 µM
- TGI (EKVX NSCLC): > 100 µM
- TGI (HCT-116 colon): > 100 µM
- TGI (HL-60(TB) leukemia): 80 µM
- TGI (HOP-18 NSCLC): > 100 µM
- TGI (HOP-62 NSCLC): > 100 µM
- TGI (HOP-92 NSCLC): > 100 µM
- TGI (HT29 colon): > 100 µM
- TGI (IGROV1 ovarian): > 100 µM
- TGI (K-562 leukemia): > 100 µM
- TGI (KM12 colon): > 100 µM
- TGI (LXFL 529 NSCLC): > 100 µM
- TGI (M14 melanoma): > 100 µM
- TGI (M19-MEL melanoma): > 100 µM
- TGI (MALME-3M melanoma): > 100 µM
- TGI (MOLT-4 leukemia): > 100 µM
- TGI (NCI-H226 lung): > 100 µM
- TGI (NCI-H23 lung): > 100 µM
- TGI (NCI-H460 lung): > 100 µM
- TGI (NCI-H522 lung): > 100 µM
- TGI (OVCAR-3 ovarian): > 100 µM
- TGI (OVCAR-4 ovarian): > 100 µM
- TGI (OVCAR-5 ovarian): > 100 µM
- TGI (OVCAR-8 ovarian): > 100 µM
- TGI (RPMI-8226 leukemia): > 100 µM
- TGI (RXF 393 renal): > 100 µM
- TGI (RXF-631 renal): > 100 µM
- TGI (SF-268 CNS): > 100 µM
- TGI (SF-295 CNS): > 100 µM
- TGI (SF-539 CNS): > 100 µM
- TGI (SK-MEL-2 melanoma): > 100 µM
- TGI (SK-MEL-28 melanoma): > 100 µM
- TGI (SK-MEL-5 melanoma): 40.6 µM
- TGI (SK-OV-3 ovarian): > 100 µM
- TGI (SN12C renal): > 100 µM
- TGI (SNB-19 CNS): > 100 µM
- TGI (SNB-75 CNS): > 100 µM
- TGI (SNB-78 CNS): > 100 µM
- TGI (SR leukemia): > 100 µM
- TGI (SW-620 colon): > 100 µM
- TGI (TK-10 renal): > 100 µM
- TGI (U251 CNS): > 100 µM
- TGI (UACC-257 melanoma): > 100 µM
- TGI (UACC-62 melanoma): > 100 µM
- TGI (UO-31 renal): > 100 µM
- TGI (XF 498 CNS): > 100 µM
